Assay results from patent US10561633B2, “Hydroxyflavanones as appetite stimulants” (Symrise AG, priority 2014, dated 2020).
Marks after values point to notes of the source that are not given here.

Experiments:
[1] = test system: Human neuroblastoma cells (SH-SY5Y); experiment: Serotonin release from SH-SY5Y cells (Serotonin-ELISA, normalised to DNA content); format: cell-based; conditions: 5 min stimulation, relative to control (0.1% EtOH)
Method: Human neuroblastoma cells (SH-SY5Y, ATCC number CRL-2266) are used as the cell model for the release of the neurotransmitter serotonin. Cultivation takes place at 37° C. and 5% CO2 content with a mixture consisting of equal parts of Eagle's minimal essential medium (MEM) and F12 medium (in each case with 10% FBS and 1 penicillin/streptomycin). For measurement of the serotonin release, the cells are harvested with trypsin and, after a vitality test by trypan blue staining, sown in 35 mm cell culture dishes in a defined cell number.
After stimulation of 1.25*10^6 human neuroblastoma cells (SH-SY5Y) for 5 minutes with 300 μl of Krebs-Ringer-HEPES buffer, 0.1% ascorbic acid, pH 6.2, with or without addition of the homoeriodictyol, wherein concentrations of 0.001 μM, 0.01 μM, 0.1 μM, 1 μM and 10 μM in the Krebs-Ringer-HEPES buffer are established when the homoeriodictyol is added, the serotonin content is determined by means of an enzyme-based detection method (Serotonin-ELISA sensitive, DLD Diagnostica, Hamburg, Germany). The cells are lyzed with a buffer containing sodium lauroyl sarcosinate and the DNA content is determined by means of a NanoQuant plate (Tecan, Ménnendorf, Switzerland) for normalization of the serotonin release.
The results are shown in % relative to the control (buffer with 0.1% ethanol). n=3, tR=2. Significant differences in the treatments relative to the control were tested with a single-factor ANOVA with a subsequent Holm-Sidak post hoc test against the control and marked according to the following scheme: * p≤0.05; ** p≤0.01; *** p≤0.001. Concentration-dependent differences were tested with a single-factor ANOVA with a subsequent Holm-Sidak post hoc test and identified by different letters (a, b), wherein no common letter marks a significant difference.

[2] = test system: serotonin plasma concentration; experiment: Change in serotonin plasma concentration of healthy subjects after oral homoeriodictyol (crossover human intervention); format: in vivo; conditions: 30 mg oral in 125 ml of water, on average 37 minutes after administration, n=10, water control −6.81 ± 10.6, p<0.05
Method: In order to determine the serotonin plasma concentration, whole blood is taken from healthy subjects in each case on a test day before and on average 37 minutes after administration of the test solution (1st test day: 125 ml of water; 2nd test day: 30 mg of homoeriodictyol dissolved in 125 ml of water).
The plasma is obtained from the whole blood by refrigerated centrifugation for 15 minutes at 1800×g, and the serotonin concentration in the plasma is determined by an enzyme-based detection method (Serotonin ELISA, DLD Diagnostika, Germany).
The change in the serotonin plasma concentration before and after administration of 125 ml of water or 30 mg of homoeriodictyol dissolved in 125 ml of water is shown in Table 2. There is a significant difference between the two treatments (p<0.05; n=10), which was determined by a dependent, two-sided Student's T-test and is marked *.

[3] = test system: serotonin plasma concentration; experiment: Absolute plasma serotonin concentration after oral administration of 30 mg of homoeriodictyol; format: in vivo, human; conditions: after oral administration of 30 mg in 125 ml of water, on average 35 minutes, healthy subjects, n=16; before administration 306 ± 152; p<0.05
Method: In order to determine the serotonin plasma concentration, whole blood is taken from healthy subjects on a test day before and on average 35 minutes after administration of 30 mg of homoeriodictyol dissolved in 125 ml of water. The plasma is obtained from the whole blood by refrigerated centrifugation for 15 minutes at 1800×g, and the serotonin concentration in the plasma is determined by an enzyme-based detection method (Serotonin-ELISA, DLD Diagnostika, Germany).
The change in the serotonin plasma concentration before and after administration of 30 mg of homoeriodictyol dissolved in 125 ml of water is shown in Table 3. There is a significant difference between the two treatments (p<0.05, n=16), which was determined by a dependent, two-sided Student's T-test and is marked *.

[4] = test system: 3T3-L1 adipocytes; experiment: Fatty acid uptake in 3T3-L1 adipocytes (QBT Fatty Acid Uptake kit); format: cell-based; conditions: 30 min preincubation, AUC of fluorescence over one hour vs EtOH control
Method: 3T3-L1 preadipocytes (ATCC CL-173) are used as the cell model for the uptake of free fatty acid into peripheral cells, here adipocytes. Cultivation is carried out at 37° C. and 5% CO2 content in DMEM culture medium to which 10% FBS 4% L-glutamine and 1% penicillin/streptomycin have been added. In order to measure the fatty acid uptake, the 3T3-L1 cells are differentiated in 175 cm^2 cell culture bottles from fully matured adipocytes. To that end, two days after reaching confluence, the cells are stimulated to differentiate for 48 hours by the addition of 10 μg/ml insulin, 1 μM dexamethasone and 0.5 mM isobutyl methyl xanthine from the culture medium. After the cells have been treated for a further 48 hours with 10 μg/ml insulin in the cell culture medium, normal culture medium is again used until the adipocytes are fully mature. The cells are usually used for the test seven to nine days after the onset of differentiation. To that end, the cells are harvested with trypsin and, after a positive vitality test with trypan blue, scattered in a 96-well plate at a rate of 65,000 cells per well. Measurement of the fatty acid uptake is carried out after a 60-minute synchronization of the cells by removal of the fetal bovine serum and a 30-minute preincubation with Hank's balanced salt solution, to which 20 mM HEPES (HBSS/HEPES), with or without the addition of from 0.01 to 10 μM of homoeriodictyol, by means of a fluorescence-labeled fatty acid analog (QBT Fatty Acid Uptake kit, Molecular Devices, Germany), have been added. The change in the area under the curve formed by the increase in the fluorescence signal over the course of one hour is shown in % in comparison with the control. The change in the fatty acid uptake in 3T3-L1 adipocytes after preincubation for 30 minutes with HESS/HEPES buffer with 0.1% ethanol (control) or 0.01-10 μM homoeriodictyol dissolved in HBSS/HEPES buffer is shown in Table 4. Significant differences (p<0.001) relative to the control were tested with a single-factor ANOVA against the control with a subsequent Dunn's post hoc test and are marked ***. Mean values from 3-4 independent experiments with in each case 3 repetitions are shown.

SMILES: COc1cc(C2CC(=O)c3c(O)cc(O)cc3O2)ccc1O (centres unmarked) [Homoeriodictyol, homoeriodictyol]
- Serotonin release T/C ([1]; 0.001 μM): 62.2%
- Serotonin release T/C ([1]; 0.01 μM): 42.9%
- Serotonin release T/C ([1]; 0.1 μM): 42.6%
- Serotonin release T/C ([1]; 1 μM): 43.5%
- Serotonin release T/C ([1]; 10 μM): 71.9%
- Change in the serotonin concentration in the plasma after administration of the test solution [2]: −19.1 ± 10.6
- Serotonin concentration in the plasma [3]: 192 ± 122 nmol
- Change in fatty acid uptake ([4]; 0.01 μM): 4.34%
- Change in fatty acid uptake ([4]; 0.1 μM, p<0.001): 8.78*** %
- Change in fatty acid uptake ([4]; 1 μM): 4.10%
- Change in fatty acid uptake ([4]; 10 μM): −0.47%
